US10265378B2, “Combination therapy for head and neck cancer” (Cornell University, priority 2014, dated 2019)

Key:
[1] = Mouse serum triglyceride level measurements; type: in vivo; conditions: treatment for 15 weeks; compared to the UNT group
Description: Mouse serum triglyceride level measurements. Blood samples from the mice were obtained from mouse tails. The analysis of serum triglyceride levels was carried out at the Laboratory of Comparative Pathology of the Memorial Sloan-Kettering Cancer Center. UNT (n=4); 4-NQO (n=3); 4N+B (n=4); 4N+C (n=3), and 4N+B+C (n=4).

MCT4 = assay: Immunohistochemistry of tongue epithelium: MCT4; type: in vivo, mouse; conditions: compared to the 4-NQO group; antibody staining
Source text: (§1) The tongues were fixed, embedded in paraffin, and sectioned. Then the tissue sections were stained with various antibodies (magnification, 200×). Four to five representative areas of each tongue section from two to four mice/group were photographed and analyzed (FIGS. 12A and 12B). Interleukin-6 (IL-6) is a multifunctional cytokine that is involved in the regulation of immune responses and cellular functions. IL-6 levels are enhanced in human oral squamous cell carcinoma and IL-6 is considered a bad prognostic factor in this cancer (Expert Opin Ther Targets. 2013 January; 17(1):53-9). IL-6 protein was detected primarily in the basal layer of tongue epithelium in the UNT samples (FIG. 12A, arrows), but in the 4-NQO treated samples we observed both an increase in the protein level and an expansion of IL-6 signal to the suprabasal layers of the tongue epithelium (FIG. 12A).

IL-6 = assay: Immunohistochemistry of tongue epithelium: IL-6; type: in vivo, mouse; conditions: compared to the 4-NQO group; antibody staining
Source text: as §1

[2] = Consumption of drug containing drinking water and diet; type: in vivo, mouse; conditions: 4-NQO treated mice, 15 week post 4-NQO treatment
Source text: (§2) Drug treatments reduce tongue tumor development. All of the mice tolerated the 10 week 4-NQO treatment, and almost all of the mice survived the 15 week post 4-NQO treatment period (A). We determined that the CD1530 in the regular drinking water was stable for at least 7 days at room temperature by HPLC analysis (FIG. 7); thus, we decided to use drinking water as a delivery method because this method is effective and less laborious.

[3] = system: mouse tongue mRNA transcriptome; assay: RNA-Seq analysis of the mRNA transcriptome of mouse tongues; type: in vivo
Description: RNA-Seq analysis of the mRNA transcriptome. One part of each mouse tongue (same position on each mouse tongue) was snap frozen in liquid N2 and stored at −70° C. until total RNA extraction. Total tissue RNA was extracted and subjected to Next-Generation Sequencing (RNA-Seq) at the Genomics Resources Core Facility, Weill Cornell Medical College. Bioinfomatics analyses were performed using the Tophat and Cufflink software. (supporting information).
RNA-Seq analysis of mRNA transcriptome. […] The GEO Accession number is GSE54246; embargoed until publication.

[4] = system: 4-hydroxynonenal (4-HNE), marker of oxidative stress; assay: Immunohistochemistry of tongue epithelium: 4-HNE; type: in vivo, mouse; conditions: compared to the 4-NQO group; antibody staining
Description: (§3) Immunohistochemistry. Paraffin embedded tongue sections were stained with various antibodies (supporting information).
(§4) Immunohistochemistry. Paraffin-embedded sections (from two to four mice per group) were deparaffinized and rehydrated, and antigen retrieval was performed using an antigen unmasking solution (Vector Laboratories, H-3300). After quenching endogenous peroxidase with 3% H2O2, the tissue sections were blocked with the blocking reagent (from the M.O.M. kit from Vector Laboratories for 4-HNE) or 10% goat serum (Vector Laboratories). Then, tissue sections were incubated with a 4-HNE antibody (1:700; mouse monoclonal antibody; Abcam, ab48506), a β-catenin antibody (1:400; rabbit polyclonal antibody; Abcam, ab6302), or a MMP9 antibody (1:70; rabbit polyclonal antibody; Abcam, ab38898), respectively, overnight at 4° C. The sections were then incubated with secondary antibodies (1:200, anti-mouse IgG from the M.O.M kit for 4-1-INE; ready-to-use anti-rabbit IgG from the Invitrogen SuperPicture kit for β-catenin and MMP9). As a negative control, sections were stained without incubation with primary antibodies. The signals were visualized based on a peroxidase detection mechanism with 3,3-diaminobenzidine (DAB) used as the substrate. Four to five representative areas of each mouse tongue section from two to four mice per group were photographed and analyzed.

[5] = system: tongue lesions (4-NQO induced oral cavity carcinogenesis); assay: 4-NQO mouse oral cavity carcinogenesis model: gross tongue lesion number and severity
[6] = Stability of CD1530 in drinking water by HPLC; type: physicochemical; conditions: room temperature, final DMSO 0.8%
Source text: FIG. 7. CD1530 is stable in the drinking water for at least 7 days at room temperature. CD1530 was first dissolved in 100% DMSO and subsequently diluted in the drinking water (the final concentration of DMSO was 0.8%). The same amounts of the freshly prepared CD1530 containing drinking water and the CD1530 containing water prepared 7 days earlier and stored at the room temperature were subjected to high-performance liquid chromatography (HPLC) analysis.
as §2

[7] = system: GO categories in mouse tongue; assay: Gene ontology (GO) analysis of RNA-Seq data; type: in vivo; conditions: compared to the 4-NQO group
Description: Gene ontology (GO) analysis. Gene ontology (GO) analysis (p-value cutoff: 0.00001), using the ConsensusPathDB online tool, was conducted on the Gene Ontology level 3 of the “Biological Process” domain that has predefined, functional sets for enrichment analysis with default parameter settings.

β-catenin = assay: Immunohistochemistry of tongue epithelium: β-catenin; type: in vivo, mouse; conditions: compared to the 4-NQO group; antibody staining
Description: as §3, §4

[8] = compared to the 4-NQO group, p<0.05

In the case of `O=C(O)c1ccc(-c2ccc3cc(O)c(C45CC6CC(CC(C6)C4)C5)cc3c2)cc1` [CD1530], the serum triglyceride levels [1] is reported as “did not change serum triglyceride levels significantly”, the “MCT4 protein levels in the tongue epithelium” value (MCT4) is reported as “lower MCT4 protein levels” and the “IL-6 protein levels in the tongue epithelium” value (IL-6) is reported as “lower IL-6 protein levels”. The “consumption of drinking water containing drug vs regular drinking water” value [2] was “comparable”, the “transcript levels of DNA replication genes (MCM 2-7 and 10, DNA2, LIG1, ORC1, POLA1, PRIM2)” value ([3]; compared to the 4-NQO group) was “significantly lower transcript levels of the majority of these genes” and the “number of genes with decreased transcript levels” value [3, 8] was 531. The “number of genes with increased transcript levels” value [3, 8] was 987, the “number of genes with significantly different transcript levels” value [3, 8] was 1518 and the “Cyp26a1 mRNA level” value ([3]; greater than in other groups, RARγ target gene) was “about 20 fold”. The “4-HNE levels in tongue samples” value [4] was “lower”, the “number of tongue lesions (gross tongue lesion multiplicity)” value ([5]; C57BL/6 female mice, 4-NQO 10 weeks, then drug in 15 week post 4-NQO period, bexarotene 300 mg/kg diet, CD1530 […]100 ml drinking water, 4-NQO group 5.9±3.2) was 3.9±1.7 and the “average severity of tongue lesions (grade 0-4)” value ([5]; same model, 4-NQO group 2.8±0.8) was 1.6±0.8. The “stable in the drinking water” value [6] was “at least 7 days”, the “GO categories related to cell cycle, DNA replication, and mitosis” value [7] was “most under-expressed” and the “over-represented GO categories” value [7] was “over-representation of many GO categories, with some of them involved in lipid metabolism”. The “β-catenin protein levels in the tongue epithelium” value (β-catenin) was “lower β-catenin protein levels”.
